Experimental data published in patent US9241916B2, “Cognitive performance with sirtuin activators” (President and Fellows of Harvard College, priority 2005, dated 2016).
“Also recorded” adds a separate entry of the source.

Legend:
mice [1] = assay: Ethanol-induced impairment of context-dependent fear conditioning; type: in vivo
Description: (§1) The principle of Pavlovian fear conditioning is as follows. During the training procedure mice are exposed to a novel context (context 1), consisting of an observation chamber with defined lightning, odor, background noise and geometry. After exploring this novel environment for 180 s the animals are exposed to a tone for 30 s followed by a mild electric foot shock for 2 s. On the basis of associative learning mice display aversive freezing behavior during a memory test consisting of re-expose to the conditioning context 24 h after the training. […] Tone-dependent fear memories can be analyzed by presenting the tone in context 2. Freezing is an inborn behavior that rodents express in threatening situations. It is defined as the complete absence of movement, except respiration and heartbeat. […] Therefore, freezing behavior is commonly used to quantify the amount of learning.

C57BL/6J mice = assay: Context- and tone-dependent Pavlovian fear conditioning, icv. injection; type: in vivo; settings: vs. vehicle
Description: A fundamental type of learning is associative learning that can be analyzed in rodents using the pavlovian fear conditioning paradigm (Fendt and Fanselow, 1999; Fischer et al., 2003). As fear conditioning is a robust and commonly used method to analyze learning and allows to delineate the involvement of distinct brain structures in the learning process, we choose this paradigm to investigate the effect of reveratrol on learning. The principle of Pavlovian fear conditioning is as follows. During the training procedure mice are exposed to a novel context (context 1), consisting of an observation chamber with defined lightning, odor, background noise and geometry. After exploring this novel environment for 180 s the animals are exposed to a tone for 30 s followed by a mild electric foot shock for 2 s. On the basis of associative learning mice display aversive freezing behavior during a memory test consisting of re-expose to the conditioning context 24 h after the training. […] Tone-dependent fear memories can be analyzed by presenting the tone in context 2. Freezing is an inborn behavior that rodents express in threatening situations. It is defined as the complete absence of movement, except respiration and heartbeat. Whereas mice display no freezing behavior during training, a significant increase of freezing behavior is observed upon re-exposure to the conditioned context only. Therefore, freezing behavior is commonly used to quantify the amount of learning. C57BL/6J mice were anesthetized and microcannula (PlasticOne; AP −0 mm, lateral 1 mm, depth 2 mm) were implanted into the lateral brain ventricles (icv). […] The animals were trained by context- and tone-dependent fear conditioning 24 h after the last icv. injection and memory retention was analyzed the following day (see FIG. 1A). […] The mice were tested for memory retention 24 h later by re-exposure to the conditioning context.

mice [2] = assay: Context- and tone-dependent fear conditioning, intra-hippocampal (i.h.) injection; type: in vivo; settings: vs. vehicle
Description: The principle of Pavlovian fear conditioning is as follows. During the training procedure mice are exposed to a novel context (context 1), consisting of an observation chamber with defined lightning, odor, background noise and geometry. After exploring this novel environment for 180 s the animals are exposed to a tone for 30 s followed by a mild electric foot shock for 2 s. On the basis of associative learning mice display aversive freezing behavior during a memory test consisting of re-expose to the conditioning context 24 h after the training. […] Tone-dependent fear memories can be analyzed by presenting the tone in context 2. Freezing is an inborn behavior that rodents express in threatening situations. It is defined as the complete absence of movement, except respiration and heartbeat. Whereas mice display no freezing behavior during training, a significant increase of freezing behavior is observed upon re-exposure to the conditioned context only. Therefore, freezing behavior is commonly used to quantify the amount of learning. Context-dependent fear conditioning requires the hippocampus whereas tone-dependent fear conditioning relies on an intact amygdala (Kim and Fanselow, 1992).

Sirt1 deacetylase = biological target: T1, Sirt1 deacetylase (Homo sapiens, UniProt Q96EB6); settings: Howitz et al., 2003; Wood et al., 2004; cited from earlier work
T1 sequence (Q96EB6 1-747): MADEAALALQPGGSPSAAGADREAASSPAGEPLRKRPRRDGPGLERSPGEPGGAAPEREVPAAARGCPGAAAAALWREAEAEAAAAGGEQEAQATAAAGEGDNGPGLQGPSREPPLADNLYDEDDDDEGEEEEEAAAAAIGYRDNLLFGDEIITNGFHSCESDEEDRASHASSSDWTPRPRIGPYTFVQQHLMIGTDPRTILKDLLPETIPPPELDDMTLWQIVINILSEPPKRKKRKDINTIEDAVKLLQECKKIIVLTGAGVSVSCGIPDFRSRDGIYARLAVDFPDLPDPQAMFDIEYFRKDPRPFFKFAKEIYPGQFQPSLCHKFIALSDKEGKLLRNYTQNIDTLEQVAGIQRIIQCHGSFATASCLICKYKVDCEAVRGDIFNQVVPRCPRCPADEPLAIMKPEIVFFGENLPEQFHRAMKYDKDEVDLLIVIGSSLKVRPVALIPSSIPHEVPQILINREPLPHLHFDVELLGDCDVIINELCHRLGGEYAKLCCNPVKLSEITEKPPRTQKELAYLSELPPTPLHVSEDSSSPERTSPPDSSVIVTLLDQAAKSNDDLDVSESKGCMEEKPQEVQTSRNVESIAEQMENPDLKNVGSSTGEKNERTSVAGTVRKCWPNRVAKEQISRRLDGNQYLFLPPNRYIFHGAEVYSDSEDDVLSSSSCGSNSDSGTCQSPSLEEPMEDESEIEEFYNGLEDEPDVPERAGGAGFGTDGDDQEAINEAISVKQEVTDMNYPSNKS

CK-p25 mice = assay: p25-mediated cognitive decline, fear conditioning in CK-p25 mice; type: in vivo; settings: p25 induced for 5 weeks, icv. 5 μg/mouse 2-3×/week, vs. vehicle
Description: as §1

[3] = icv. 5 μg/mouse for 7 consecutive days, training 24 h after last injection, memory test the following day
[4] = single icv. injection 5 μg/mouse immediately after training, test 24 h later

Compound	freezing behavior during the context-dependent memory test (impairment by ethanol) (mice [1]; ip. 33% ethanol/PBS immediately after training)	freezing behavior during the context-dependent memory test (C57BL/6J mice; [3])	freezing behavior during the tone-dependent memory test (C57BL/6J mice; [3])	freezing behavior during the context-dependent memory test (C57BL/6J mice; [4])	freezing behavior during the tone-dependent memory test (C57BL/6J mice; [4])	freezing behavior during the context-dependent memory test (mice [2]; i.h. 5 μg/mouse 4 h after the training)	freezing during the tone-dependent memory test (mice [2]; i.h. 5 μg/mouse immediately or 4 h after the training)	agonism of the Sirt1 deacetylase (Sirt1 deacetylase)	freezing behavior, memory retention 24 h after fear conditioning (CK-p25 mice)	freezing behavior during the context-dependent memory test (prevention of ethanol-induced impairment) (mice [1]; ip. 30 mg/kg resveratrol in 33% ethanol/PBS immediately after training, compared with PBS and ethanol groups, 30 mg/kg)
CCO [ethanol]	impaired freezing behavior; also recorded: severe impaired freezing									
Oc1ccc(C=Cc2cc(O)cc(O)c2)cc1 [resveratrol, 3,5,4′-tri-hydroxystilbene]		significantly increased freezing behavior	significantly increased freezing behavior	significantly increased freezing behavior; also recorded: significantly enhanced freezing	significantly increased freezing behavior	significantly enhanced freezing behavior	not different among groups	potent agonist	significantly enhanced	performed indistinguishable to mice injected only with PBS; also recorded: attenuated this effect
